Measurements from patent US20020115661A1, “Method for treating chronic obstructive pulmonary disease” (priority 2000, published 2002).

How the values were obtained:
dog ETA receptors = target: T1, dog ETA receptors (Canis lupus familiaris, UniProt Q5KSU9); assay: [125I]ET-1 binding, membranes from dog cardiac ventricle
T1 construct: from tissue
T1 sequence (Q5KSU9 21-426): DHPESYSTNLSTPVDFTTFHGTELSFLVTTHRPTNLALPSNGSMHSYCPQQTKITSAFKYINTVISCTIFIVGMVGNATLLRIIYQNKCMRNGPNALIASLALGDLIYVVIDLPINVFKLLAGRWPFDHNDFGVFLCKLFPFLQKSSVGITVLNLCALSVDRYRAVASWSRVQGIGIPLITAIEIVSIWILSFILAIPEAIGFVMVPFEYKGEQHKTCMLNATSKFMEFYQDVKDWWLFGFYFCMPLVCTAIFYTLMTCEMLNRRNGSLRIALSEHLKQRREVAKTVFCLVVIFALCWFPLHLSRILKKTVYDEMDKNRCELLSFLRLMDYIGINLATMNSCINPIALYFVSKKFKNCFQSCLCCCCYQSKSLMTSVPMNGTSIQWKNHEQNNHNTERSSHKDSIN
Text: (§1) Relative binding activities are given below in TABLE 3.

[1] = tested on: bET-1 pressor response (ETA receptors); assay: Blockade of bET-1 induced pressor responses in rats; type: in vivo, rat
Text: Vehicle-treated rats responded to the bET-1 challenge with peak increases in mean arterial pressure (MAP) of 58±2 mm Hg (N=7); baseline MAP was 82±5 mm Hg.

rat ETA receptors = target: T2, rat ETA receptors (Rattus norvegicus, UniProt P26684); assay: [125I]ET-1 binding, membranes from rat A10 cells
T2 construct: endogenous in cells
T2 sequence (P26684 21-426): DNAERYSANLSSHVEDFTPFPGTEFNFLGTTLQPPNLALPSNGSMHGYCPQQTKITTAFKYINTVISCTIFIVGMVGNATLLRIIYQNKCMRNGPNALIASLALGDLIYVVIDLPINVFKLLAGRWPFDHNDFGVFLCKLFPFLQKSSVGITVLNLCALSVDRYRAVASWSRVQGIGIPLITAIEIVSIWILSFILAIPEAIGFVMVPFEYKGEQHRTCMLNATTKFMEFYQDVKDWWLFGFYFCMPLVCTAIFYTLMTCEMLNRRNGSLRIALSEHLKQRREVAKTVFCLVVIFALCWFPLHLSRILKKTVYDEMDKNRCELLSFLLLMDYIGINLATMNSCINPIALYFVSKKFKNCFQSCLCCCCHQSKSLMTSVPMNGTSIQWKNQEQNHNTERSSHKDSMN
Text: as §1

[2] = target: T3, human ETA receptor signaling (Homo sapiens, UniProt P25101); assay: ET-1 induced Ca2+ transient (Calcium Green-1) in human pulmonary artery smooth muscle cells; type: cell-based; conditions: hPASMC, ET-1 100 nM; read-out: IC50, inhibition of ET-1 Ca2+ response
T3 construct: endogenous in cells; host or cells: human pulmonary artery smooth muscle cells (hPASMC)
T3 sequence (P25101 21-427): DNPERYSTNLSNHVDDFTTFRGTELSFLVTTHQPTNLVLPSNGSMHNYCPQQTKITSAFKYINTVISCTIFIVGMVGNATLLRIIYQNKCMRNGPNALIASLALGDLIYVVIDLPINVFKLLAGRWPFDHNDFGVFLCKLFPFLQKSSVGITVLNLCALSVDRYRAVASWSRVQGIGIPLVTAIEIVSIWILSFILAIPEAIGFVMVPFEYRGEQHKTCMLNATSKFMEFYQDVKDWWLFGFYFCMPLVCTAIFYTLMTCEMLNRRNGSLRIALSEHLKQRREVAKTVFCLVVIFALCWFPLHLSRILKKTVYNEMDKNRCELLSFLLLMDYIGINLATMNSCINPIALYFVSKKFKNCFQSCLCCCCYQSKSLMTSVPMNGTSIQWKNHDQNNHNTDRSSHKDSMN

[3] = Octanol-aqueous partition coefficient, shake-flask method with HPLC; type: physicochemical
Method: Partition Coefficient: The octanol-aqueous partition coefficient at various pH values was determined by the shake-flask method using HPLC for measurement of the amount of compound in each phase.

## CCc1cc(C2=C(C(=O)[O-])N(c3ccccc3C(F)(F)F)S(=O)(=O)c3ccccc32)cc2c1OCO2.[K+] [CI-1034, 4-(7-Ethyl-1,3-benzodioxol-5-yl)-2-[2-(trifluoromethyl)phenyl]-2H-1 ,2-benzothiazine-3-carboxylic acid 1,1-dioxide monopotassium salt]
Dog ETA receptors
  IC50: 2 nM
[1]; 30 mg/kg oral gavage 24 hours before bET-1 1 nmol/kg IV
  peak pressor response to bET-1 challenge (MAP increase): 35±7 mm Hg
[1]; 30 mg/kg oral gavage 24 hours before challenge, p<0.05
  inhibition of the bET-1 pressor response compared to vehicle: 39%
Rat ETA receptors
  IC50: 3.3 nM
[2]
  IC50: 0.22 nM
[3]; pH 1, 0.1N Hydrochloric Acid
  logD: 3.24
[3]; pH 4, 0.05 M Sodium Acetate Buffer
  logD: 2.93
[3]; pH 7.4, 0.05 M Potassium Phosphate Buffer
  logD: 0.56
